From the supplement of paper PMC10307832

Legend:
Experiment in all cases: relative viability (nuclei count vs DMSO), 5 days (fraction); higher = more cells survive
[1] = tested on: A549
Procedure, shortened: (§1)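 Relative viability was taken as the ratio of nuclei in treated wells to nuclei in vehicle wells. Lung cancer cell lines in 1536-well plates received compounds by pin tool one day after seeding, either one drug alone or a fixed anchor-drug dose plus five library-drug doses (not always all listed) in √10 steps. Nuclei were counted on 4× images after 5 days of treatment, and values are medians of duplicate plates.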

[2] = tested on: Calu-6
Procedure, shortened: as §1

[3] = tested on: EBC-1
Procedure, shortened: as §1

[4] = tested on: HCC-78
Procedure, shortened: as §1

[5] = tested on: IA-LM
Procedure, shortened: as §1

[6] = tested on: NCI-H1299
Procedure, shortened: as §1

[7] = tested on: NCI-H1703
Procedure, shortened: as §1

[8] = tested on: NCI-H2009
Procedure, shortened: as §1

[9] = tested on: NCI-H358
Procedure, shortened: as §1

[10] = tested on: NCI-H460
Procedure, shortened: as §1

[11] = tested on: NCI-H661
Procedure, shortened: as §1

Q: For `Nc1ccn([C@@H]2O[C@H](CO)[C@@H](O)[C@@H]2O)c(=O)n1` [Cytarabine] + C[C@]1(O)C[C@@H](c2nc(-c3ccc4ccc(-c5ccccc5)nc4c3)c3c(N)nccn32)C1 [Linsitinib] (partner 1 µM), which relative viability ([1]; first compound 0.005 µM) is on record?
A: 0.579

Q: And the relative viability ([1]; first compound 0.01581 µM)?
A: 0.499

Q: What about the relative viability ([1]; first compound 0.05 µM) of the same compound?
A: 0.407

Q: And the relative viability ([1]; first compound 0.1581 µM)?
A: 0.0819

Q: And the relative viability ([1]; first compound 0.5 µM)?
A: 0.0375

Q: And the relative viability ([2]; first compound 0.005 µM)?
A: 0.928

Q: What about the relative viability ([2]; first compound 0.01581 µM) of the same compound?
A: 0.871

Q: What about the relative viability ([2]; first compound 0.05 µM) of the same compound?
A: 0.734

Q: What about the relative viability ([2]; first compound 0.1581 µM) of the same compound?
A: 0.444

Q: What about the relative viability ([2]; first compound 0.5 µM) of the same compound?
A: 0.283

Q: And the relative viability ([3]; first compound 0.005 µM)?
A: 0.742

Q: And the relative viability ([3]; first compound 0.01581 µM)?
A: 0.815

Q: And the relative viability ([3]; first compound 0.05 µM)?
A: 0.614

Q: And the relative viability ([3]; first compound 0.1581 µM)?
A: 0.461

Q: And the relative viability ([3]; first compound 0.5 µM)?
A: 0.296

Q: And the relative viability ([4]; first compound 0.005 µM)?
A: 0.538

Q: What about the relative viability ([4]; first compound 0.01581 µM) of the same compound?
A: 0.457

Q: What about the relative viability ([4]; first compound 0.05 µM) of the same compound?
A: 0.432

Q: What about the relative viability ([4]; first compound 0.1581 µM) of the same compound?
A: 0.275

Q: And the relative viability ([4]; first compound 0.5 µM)?
A: 0.132

Q: What about the relative viability ([5]; first compound 0.005 µM) of the same compound?
A: 0.326

Q: And the relative viability ([5]; first compound 0.01581 µM)?
A: 0.763

Q: What about the relative viability ([5]; first compound 0.05 µM) of the same compound?
A: 0.357

Q: And the relative viability ([5]; first compound 0.1581 µM)?
A: 0.243

Q: And the relative viability ([5]; first compound 0.5 µM)?
A: 0.201

Q: What about the relative viability ([6]; first compound 0.005 µM) of the same compound?
A: 0.928

Q: And the relative viability ([6]; first compound 0.01581 µM)?
A: 1.07

Q: And the relative viability ([6]; first compound 0.05 µM)?
A: 1

Q: What about the relative viability ([6]; first compound 0.1581 µM) of the same compound?
A: 1.05

Q: What about the relative viability ([6]; first compound 0.5 µM) of the same compound?
A: 0.886

Q: What about the relative viability ([7]; first compound 0.005 µM) of the same compound?
A: 0.339

Q: And the relative viability ([7]; first compound 0.01581 µM)?
A: 0.346

Q: What about the relative viability ([7]; first compound 0.05 µM) of the same compound?
A: 0.166

Q: And the relative viability ([7]; first compound 0.1581 µM)?
A: 0.107

Q: What about the relative viability ([7]; first compound 0.5 µM) of the same compound?
A: 0.0904

Q: And the relative viability ([8]; first compound 0.005 µM)?
A: 1.11

Q: And the relative viability ([8]; first compound 0.01581 µM)?
A: 1.12

Q: What about the relative viability ([8]; first compound 0.05 µM) of the same compound?
A: 1.19

Q: And the relative viability ([8]; first compound 0.1581 µM)?
A: 0.83

Q: And the relative viability ([8]; first compound 0.5 µM)?
A: 0.411

Q: And the relative viability ([9]; first compound 0.005 µM)?
A: 0.571

Q: And the relative viability ([9]; first compound 0.01581 µM)?
A: 0.628

Q: What about the relative viability ([9]; first compound 0.05 µM) of the same compound?
A: 0.494

Q: What about the relative viability ([9]; first compound 0.1581 µM) of the same compound?
A: 0.248

Q: And the relative viability ([9]; first compound 0.5 µM)?
A: 0.16

Q: And the relative viability ([10]; first compound 0.005 µM)?
A: 0.509

Q: And the relative viability ([10]; first compound 0.01581 µM)?
A: 0.514

Q: And the relative viability ([10]; first compound 0.05 µM)?
A: 0.231

Q: What about the relative viability ([10]; first compound 0.1581 µM) of the same compound?
A: 0.0385

Q: And the relative viability ([10]; first compound 0.5 µM)?
A: 0.0239

Q: And the relative viability ([11]; first compound 0.005 µM)?
A: 0.624

Q: What about the relative viability ([11]; first compound 0.01581 µM) of the same compound?
A: 0.529

Q: And the relative viability ([11]; first compound 0.05 µM)?
A: 0.445

Q: And the relative viability ([11]; first compound 0.1581 µM)?
A: 0.286

Q: What about the relative viability ([11]; first compound 0.5 µM) of the same compound?
A: 0.21
